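Exposure lasted 48 hours, with cells grown in 96-well plates and compounds tested at five concentrations. GI50: concentration for 50% inhibition of growth.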 Active and inactive are the calls of the source. No stated cut-off is given here; in the data, active = GI50 up to about 1.1 µM and inactive = higher.
Tests used:
Assay in all cases: NCI-60 cell line screen, 48 h
786-0 = system: 786-0
A498 = system: A498
A549 = system: A549
ACHN = system: ACHN
BT-549 = system: BT-549
CAKI-1 = system: CAKI-1
CCRF-CEM = system: CCRF-CEM
COLO 205 = system: COLO 205
EKVX = system: EKVX
HCC 2998 = system: HCC 2998
HCT-116 = system: HCT-116
HCT-15 = system: HCT-15
HL-60 = system: HL-60
HOP-62 = system: HOP-62
HOP-92 = system: HOP-92
HT-29 = system: HT-29
IGROV-1 = system: IGROV-1
K562 = system: K562
KM12 = system: KM12
LOX IMVI = system: LOX IMVI
M14 = system: M14
MCF7 = system: MCF7
MDA-MB-231 = system: MDA-MB-231
MDA-MB-435 = system: MDA-MB-435
MDA-N = system: MDA-N
MOLT-4 = system: MOLT-4
Malme-3M = system: Malme-3M
NCI-H226 = system: NCI-H226
NCI-H23 = system: NCI-H23
NCI-H522 = system: NCI-H522
NCI/ADR-RES = system: NCI/ADR-RES
OVCAR-3 = system: OVCAR-3
OVCAR-4 = system: OVCAR-4
OVCAR-5 = system: OVCAR-5
OVCAR-8 = system: OVCAR-8
PC-3 = system: PC-3
RPMI-8226 = system: RPMI-8226
SF-295 = system: SF-295
SF-539 = system: SF-539
SK-MEL-28 = system: SK-MEL-28
SK-MEL-2 = system: SK-MEL-2
SK-MEL-5 = system: SK-MEL-5
SK-OV-3 = system: SK-OV-3
SN12C = system: SN12C
SNB-19 = system: SNB-19
SNB-75 = system: SNB-75
SR = system: SR
SW-620 = system: SW-620
T47D = system: T47D
TK-10 = system: TK-10
U-251 = system: U-251
UACC-257 = system: UACC-257
UACC-62 = system: UACC-62
UO-31 = system: UO-31
Hs-578T = system: Hs-578T
NCI-H460 = system: NCI-H460
RXF 393 = system: RXF 393
DU-145 = system: DU-145
SF-268 = system: SF-268

## CC1NC(/C(=C/c2ccccc2O)NC(=O)c2ccccc2)OC1=O (stereo unspecified)
786-0
  GI50: 16.3 µM (inactive)
A498
  GI50: > 50 µM (inactive)
A549
  GI50: > 50 µM (inactive)
ACHN
  GI50: 22.4 µM (inactive)
BT-549
  GI50: > 50 µM (inactive)
CAKI-1
  GI50: > 50 µM (inactive)
CCRF-CEM
  GI50: > 50 µM (inactive)
COLO 205
  GI50: > 50 µM (inactive)
EKVX
  GI50: 30.4 µM (inactive)
HCC 2998
  GI50: > 50 µM (inactive)
HCT-116
  GI50: > 50 µM (inactive)
HCT-15
  GI50: 34.1 µM
HL-60
  GI50: 23.3 µM (inactive)
HOP-62
  GI50: 16.1 µM (inactive)
HOP-92
  GI50: 11 µM (inactive)
HT-29
  GI50: > 50 µM (inactive)
IGROV-1
  GI50: 14 µM (inactive)
K562
  GI50: > 50 µM (inactive)
KM12
  GI50: 4.74 µM (inactive)
LOX IMVI
  GI50: > 50 µM (inactive)
M14
  GI50: > 50 µM (inactive)
MCF7
  GI50: 1.47 µM (inactive)
MDA-MB-231
  GI50: > 50 µM (inactive)
MDA-MB-435
  GI50: 28.8 µM (inactive)
MDA-N
  GI50: 4.05 µM (inactive)
MOLT-4
  GI50: > 50 µM (inactive)
Malme-3M
  GI50: 9.31 µM (inactive)
NCI-H226
  GI50: > 50 µM (inactive)
NCI-H23
  GI50: > 50 µM (inactive)
NCI-H522
  GI50: 24.2 µM (inactive)
NCI/ADR-RES
  GI50: > 50 µM (inactive)
OVCAR-3
  GI50: > 50 µM (inactive)
OVCAR-4
  GI50: > 50 µM (inactive)
OVCAR-5
  GI50: > 50 µM (inactive)
OVCAR-8
  GI50: > 50 µM (inactive)
PC-3
  GI50: 30.7 µM (inactive)
RPMI-8226
  GI50: > 50 µM (inactive)
SF-295
  GI50: > 50 µM (inactive)
SF-539
  GI50: 11.5 µM (inactive)
SK-MEL-28
  GI50: > 50 µM (inactive)
SK-MEL-2
  GI50: > 50 µM (inactive)
SK-MEL-5
  GI50: 39.7 µM (inactive)
SK-OV-3
  GI50: 48.2 µM (inactive)
SN12C
  GI50: > 50 µM (inactive)
SNB-19
  GI50: > 50 µM (inactive)
SNB-75
  GI50: 13.9 µM (inactive)
SR
  GI50: 2.52 µM (inactive)
SW-620
  GI50: > 50 µM (inactive)
T47D
  GI50: 27.7 µM (inactive)
TK-10
  GI50: > 50 µM (inactive)
U-251
  GI50: > 50 µM (inactive)
UACC-257
  GI50: > 50 µM (inactive)
UACC-62
  GI50: > 50 µM (inactive)
UO-31
  GI50: > 50 µM (inactive)

## COc1cc(O)c2c(=O)c(OC)c(-c3ccc(OC)c(OC)c3)oc2c1.[Zn+2]
786-0
  GI50: 10.4 µM (inactive)
A549
  GI50: 53.2 µM (inactive)
BT-549
  GI50: 17.8 µM (inactive)
CAKI-1
  GI50: 11.2 µM (inactive)
HL-60
  GI50: > 100 µM (inactive)
Hs-578T
  GI50: 2.67 µM (inactive)
MDA-N
  GI50: > 100 µM (inactive)
NCI-H226
  GI50: 54.8 µM (inactive)
NCI-H460
  GI50: 17.1 µM (inactive)
NCI-H522
  GI50: 4.38 µM (inactive)
RPMI-8226
  GI50: 57.9 µM (inactive)
RXF 393
  GI50: 5.81 µM (inactive)
SF-539
  GI50: 20.8 µM (inactive)
SK-OV-3
  GI50: 5.12 µM (inactive)
SN12C
  GI50: 61.2 µM (inactive)
SNB-75
  GI50: 1.75 µM (inactive)
TK-10
  GI50: 66.1 µM (inactive)

## O=C1CC2(c3ccccc3)ON=C(c3ccccc3)N2c2ccccc2N1 (stereo unspecified)
786-0
  GI50: 88.7 µM (inactive)
A498
  GI50: 95.3 µM (inactive)
ACHN
  GI50: 61.8 µM (inactive)
BT-549
  GI50: 37.2 µM (inactive)
CCRF-CEM
  GI50: 42.2 µM (inactive)
COLO 205
  GI50: 51.8 µM (inactive)
DU-145
  GI50: 61.5 µM (inactive)
EKVX
  GI50: 57.1 µM (inactive)
HCC 2998
  GI50: 65 µM (inactive)
HCT-116
  GI50: 34.3 µM (inactive)
HCT-15
  GI50: 53.8 µM
HL-60
  GI50: 26.7 µM (inactive)
HOP-62
  GI50: 78.7 µM (inactive)
HOP-92
  GI50: 22.1 µM (inactive)
HT-29
  GI50: 38.3 µM (inactive)
IGROV-1
  GI50: 58.5 µM (inactive)
K562
  GI50: 38.8 µM (inactive)
KM12
  GI50: 74 µM (inactive)
LOX IMVI
  GI50: 66.4 µM (inactive)
M14
  GI50: 60.4 µM (inactive)
MCF7
  GI50: 55.7 µM (inactive)
MDA-MB-231
  GI50: 40.8 µM (inactive)
MDA-MB-435
  GI50: 20 µM (inactive)
MDA-N
  GI50: 32.7 µM (inactive)
MOLT-4
  GI50: 29.7 µM (inactive)
Malme-3M
  GI50: 44.5 µM (inactive)
NCI-H226
  GI50: > 100 µM (inactive)
NCI-H23
  GI50: 47.3 µM (inactive)
NCI-H460
  GI50: 36.7 µM (inactive)
NCI-H522
  GI50: 41.6 µM (inactive)
NCI/ADR-RES
  GI50: 35.1 µM (inactive)
OVCAR-3
  GI50: 30.8 µM (inactive)
OVCAR-4
  GI50: > 100 µM (inactive)
OVCAR-5
  GI50: > 100 µM (inactive)
OVCAR-8
  GI50: 77.1 µM (inactive)
PC-3
  GI50: 30.5 µM (inactive)
RPMI-8226
  GI50: 63.4 µM (inactive)
RXF 393
  GI50: 87.1 µM (inactive)
SF-268
  GI50: 50.5 µM (inactive)
SF-295
  GI50: > 100 µM (inactive)
SF-539
  GI50: > 100 µM (inactive)
SK-MEL-28
  GI50: 50.6 µM (inactive)
SK-MEL-2
  GI50: 50.2 µM (inactive)
SK-OV-3
  GI50: 19.7 µM (inactive)
SN12C
  GI50: 52.7 µM (inactive)
SNB-19
  GI50: > 100 µM (inactive)
SNB-75
  GI50: 52 µM (inactive)
SR
  GI50: 35.6 µM (inactive)
SW-620
  GI50: 62.4 µM (inactive)
T47D
  GI50: 24.6 µM (inactive)
TK-10
  GI50: 93.5 µM (inactive)
U-251
  GI50: 80.9 µM (inactive)
UACC-257
  GI50: 71.8 µM (inactive)
UACC-62
  GI50: 37.5 µM (inactive)
UO-31
  GI50: 32.4 µM (inactive)

## O=c1c2c3c(sc2nc2n1N=C(c1ccc(Br)cc1)CS2)CCCC3
786-0
  GI50: > 100 µM (inactive)
A498
  GI50: > 100 µM (inactive)
A549
  GI50: > 100 µM (inactive)
ACHN
  GI50: > 100 µM (inactive)
BT-549
  GI50: > 100 µM (inactive)
CAKI-1
  GI50: > 100 µM (inactive)
CCRF-CEM
  GI50: > 100 µM (inactive)
COLO 205
  GI50: > 100 µM (inactive)
DU-145
  GI50: > 100 µM (inactive)
EKVX
  GI50: > 100 µM (inactive)
HCC 2998
  GI50: > 100 µM (inactive)
HCT-116
  GI50: > 100 µM (inactive)
HCT-15
  GI50: > 100 µM
HL-60
  GI50: > 100 µM (inactive)
HOP-62
  GI50: > 100 µM (inactive)
HOP-92
  GI50: > 100 µM (inactive)
HT-29
  GI50: > 100 µM (inactive)
IGROV-1
  GI50: > 100 µM (inactive)
K562
  GI50: > 100 µM (inactive)
KM12
  GI50: > 100 µM (inactive)
LOX IMVI
  GI50: > 100 µM (inactive)
M14
  GI50: > 100 µM (inactive)
MCF7
  GI50: > 100 µM (inactive)
MDA-MB-231
  GI50: > 100 µM (inactive)
MDA-MB-435
  GI50: > 100 µM (inactive)
MDA-N
  GI50: > 100 µM (inactive)
MOLT-4
  GI50: > 100 µM (inactive)
Malme-3M
  GI50: > 100 µM (inactive)
NCI-H226
  GI50: > 100 µM (inactive)
NCI-H23
  GI50: > 100 µM (inactive)
NCI-H460
  GI50: > 100 µM (inactive)
NCI-H522
  GI50: > 100 µM (inactive)
NCI/ADR-RES
  GI50: > 100 µM (inactive)
OVCAR-3
  GI50: > 100 µM (inactive)
OVCAR-4
  GI50: > 100 µM (inactive)
OVCAR-5
  GI50: > 100 µM (inactive)
OVCAR-8
  GI50: > 100 µM (inactive)
PC-3
  GI50: > 100 µM (inactive)
RXF 393
  GI50: > 100 µM (inactive)
SF-268
  GI50: > 100 µM (inactive)
SF-295
  GI50: > 100 µM (inactive)
SF-539
  GI50: > 100 µM (inactive)
SK-MEL-28
  GI50: > 100 µM (inactive)
SK-OV-3
  GI50: > 100 µM (inactive)
SN12C
  GI50: > 100 µM (inactive)
SNB-19
  GI50: > 100 µM (inactive)
SNB-75
  GI50: > 100 µM (inactive)
SR
  GI50: > 100 µM (inactive)
SW-620
  GI50: > 100 µM (inactive)
T47D
  GI50: > 100 µM (inactive)
TK-10
  GI50: > 100 µM (inactive)
U-251
  GI50: > 100 µM (inactive)
UACC-257
  GI50: > 100 µM (inactive)
UACC-62
  GI50: > 100 µM (inactive)
UO-31
  GI50: > 100 µM (inactive)

Source: ChEMBL document CHEMBL1201862, “PubChem BioAssay data set” (2004)
